Results: the NIST ThermoML archive (doi:10.1016/j.jct.2015.09.002)
± gives the expanded uncertainty stated by the source.

Tests used:
[1] = xn = mol fraction of the nth substance listed; details: 93.2 kPa, Liquid, Vibrating tube method, x1 = 1
[2] = 93.2 kPa, Liquid, Vibrating tube method

mass density ([1]; 293.15 K)	mass density ([1]; 298.15 K)	mass density ([1]; 303.15 K)	mass density ([1]; 308.15 K)	mass density ([2]; 293.15 K)	mass density ([2]; 298.15 K)	mass density ([2]; 303.15 K)	mass density ([2]; 308.15 K)	SMILES
				727.7 ± 2 kg/m3	723.02 ± 2 kg/m3	718.36 ± 2 kg/m3	713.65 ± 2 kg/m3	CCN(CC)CC [triethylamine]
				716.48 ± 2 kg/m3	711.21 ± 2 kg/m3	705.88 ± 2 kg/m3	700.62 ± 2 kg/m3	CCCN [propan-1-amine]
				737.12 ± 2 kg/m3	732.33 ± 2 kg/m3	727.51 ± 2 kg/m3	722.66 ± 2 kg/m3	CCCCN [1-butanamine]
782.01 ± 2 kg/m3	776.61 ± 2 kg/m3	771.2 ± 2 kg/m3	765.75 ± 2 kg/m3					CC#N [acetonitrile] + CC(C)(C)N
				692.06 ± 2 kg/m3	686.65 ± 2 kg/m3	681.18 ± 2 kg/m3	675.66 ± 2 kg/m3	CC(C)(C)N [2-methyl-2-propanamine]
				738.18 ± 2 kg/m3	733.64 ± 2 kg/m3	729.07 ± 2 kg/m3	724.48 ± 2 kg/m3	CCCNCCC [dipropylamine]
782.01 ± 2 kg/m3	776.61 ± 2 kg/m3	771.2 ± 2 kg/m3	765.75 ± 2 kg/m3					CC#N [acetonitrile] + CCCN
				759.7 ± 2 kg/m3	755.61 ± 2 kg/m3	751.5 ± 2 kg/m3	747.38 ± 2 kg/m3	CCCCNCCCC [dibutylamine]

Continued, compound first:

SMILES	mass density ([1]; 293.15 K)	mass density ([1]; 298.15 K)	mass density ([1]; 303.15 K)	mass density ([1]; 308.15 K)	mass density ([2]; 293.15 K)	mass density ([2]; 298.15 K)	mass density ([2]; 303.15 K)	mass density ([2]; 308.15 K)
CC#N [acetonitrile] + CCCCN	782.01 ± 2 kg/m3	776.61 ± 2 kg/m3	771.2 ± 2 kg/m3	765.75 ± 2 kg/m3				
CC#N [acetonitrile] + CCN(CC)CC	782.01 ± 2 kg/m3	776.61 ± 2 kg/m3	771.2 ± 2 kg/m3	765.75 ± 2 kg/m3				
CC#N [acetonitrile]					782.01 ± 2 kg/m3	776.61 ± 2 kg/m3	771.2 ± 2 kg/m3	765.75 ± 2 kg/m3
CC#N [acetonitrile] + CCCCNCCCC	782.01 ± 2 kg/m3	776.61 ± 2 kg/m3	771.2 ± 2 kg/m3	765.75 ± 2 kg/m3				
CC#N [acetonitrile] + CCCNCCC	782.01 ± 2 kg/m3	776.61 ± 2 kg/m3	771.2 ± 2 kg/m3	765.75 ± 2 kg/m3				
